What was measured:
GIRK1/2(IV-VT) = target: T1, GIRK1/2(IV-VT) (UniProt P48542+P48549, I97V/V99T); test: TEVC in Xenopus oocytes, double mutant GIRK1/2(IV-VT); format: cell-based, human GIRK1, mouse GIRK2; conditions: GIRK1/2(IV-VT) double mutant
T1 construct: expressed in transfected cells; host or cells: Xenopus laevis oocytes (cRNA injection)
T1 sequence (P48549 1-501): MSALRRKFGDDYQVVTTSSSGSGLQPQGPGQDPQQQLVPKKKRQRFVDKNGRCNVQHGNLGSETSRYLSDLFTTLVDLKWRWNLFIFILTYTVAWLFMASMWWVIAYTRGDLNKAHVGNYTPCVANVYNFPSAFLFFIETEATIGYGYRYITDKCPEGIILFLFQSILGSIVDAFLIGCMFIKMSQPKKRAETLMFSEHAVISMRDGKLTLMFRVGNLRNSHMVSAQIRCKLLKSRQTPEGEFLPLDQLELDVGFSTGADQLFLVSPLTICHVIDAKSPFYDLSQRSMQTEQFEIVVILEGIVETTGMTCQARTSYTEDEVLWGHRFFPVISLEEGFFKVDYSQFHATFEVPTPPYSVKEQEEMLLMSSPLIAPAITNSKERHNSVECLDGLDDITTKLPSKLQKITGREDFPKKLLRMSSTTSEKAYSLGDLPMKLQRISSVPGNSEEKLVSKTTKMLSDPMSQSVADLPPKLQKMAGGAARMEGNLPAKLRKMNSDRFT
T1 sequence (P48542 1-425 I97V/V99T): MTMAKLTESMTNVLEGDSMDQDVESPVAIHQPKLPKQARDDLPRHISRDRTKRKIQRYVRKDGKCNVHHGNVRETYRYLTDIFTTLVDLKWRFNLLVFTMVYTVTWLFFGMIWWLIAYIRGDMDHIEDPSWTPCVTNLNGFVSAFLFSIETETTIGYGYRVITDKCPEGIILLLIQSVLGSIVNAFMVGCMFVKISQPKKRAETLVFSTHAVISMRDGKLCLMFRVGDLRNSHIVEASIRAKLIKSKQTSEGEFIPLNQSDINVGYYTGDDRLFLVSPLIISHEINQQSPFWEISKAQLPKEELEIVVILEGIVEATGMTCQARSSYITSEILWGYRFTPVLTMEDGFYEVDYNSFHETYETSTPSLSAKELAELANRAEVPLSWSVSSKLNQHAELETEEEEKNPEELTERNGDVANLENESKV
Source text: Molecular biology: For Xenopus oocyte expression, human GIRK1 and human GIRK4 cDNAs were subcloned into pGEMHE. For mammalian expression, human GIRK1 and human GIRK4 cDNAs were subcloned into pcDNA3 and pcDNA3.1/V5-His B, respectively (Invitrogen). Mouse GIRK2 cDNA was subcloned in the dual-function vector, pXoom. Point mutations were introduced using a standard Pfu-based mutagenesis technique according to the QuikChange protocol (Agilent). Mutations were verified by sequencing.
Electrophysiology of oocytes: Whole-oocyte currents were measured by conventional two-electrode voltage clamp (TEVC) with a GeneClamp 500 amplifier (Axon Instruments). Agarose cushion microelectrodes were filled with 1.5% (w/v) agarose in 3 M KCl and were used with resistances between 0.1 and 1.5 megaohms. […] Barium-sensitive basal currents from both groups, 1) Vehicle, 2) single concentration at 10 μM and 3) multiple concentrations of ML297 or GAT compounds in the presence of HK solution, were assessed at −80 mV using TEVC. Barium-sensitive currents were normalized to average basal current in the vehicle solutions. The HK solution contained the following: 96 mM KCl, 1 mM NaCl, 1 mM MgCl2, 5 mM KOH/HEPES, pH 7.4. The barium solution consisted of HK+10 mM BaCl2. Five to ten oocytes from the same batch (same frog) were recorded for each group, and the experiments were repeated in at least four batches. Data acquisition and analysis were carried out using pClamp9 (Molecular Devices) and OriginPro (Microcal) software.
To test these computational predictions, the inventors mutated each or both of the two M1 key wild-type GIRK4 subunit residues to the corresponding GIRK2 residues (GIRK4-V92I, GIRK4-T94V, GIRK4-V92I/T94V or GIRK4-dm) and vice-versa the GIRK2 residues to the corresponding GIRK4 ones (GIRK2-I97V, GIRK2-V99T, GIRK2-I97V/V99T or GIRK2-dm) (FIG. 35). […]

light-dark box (LD) test = format: in vivo, rat; conditions: 10 and 30 mg/kg
Experimental: Light-dark box: Light-Dark Box test was preformed using a cage 52×100×39 cm divided into two equal sections by an opening. One section is brightly illuminated whereas the other section is dark. Animals were injected 30 min prior to testing with vehicle or ligand and then placed into the light side with immediate access to explore the entire cage. Time spent in the illuminated section was analyzed. The chamber was cleaned between each experiment.

[1] = target: human ERG (hERG) channels (Homo sapiens, UniProt Q12809); conditions: 5 µM
Experimental: In FIG. 52A, human ERG (hERG) channels were expressed in Xenopus oocytes and studied by two-electrode voltage clamp (TEVC). In FIG. 52A, hERG tail-current magnitude was assessed at −50 mV, following a 4 second test step to 20 mV from a holding voltage of −100 mV. The test pulse was repeated every 10-seconds. […] Two-electrode voltage-clamp and data analysis: Whole-oocyte currents were measured by two-electrode voltage clamp (TEVC) with GeneClamp 500 (Molecular Devices), or TEC-03X (NPI) amplifiers. […] The oocytes were bathed in ND96 recording solution comprising, in mM: KCl 2, NaCl 96, MgCl2 1 and HEPES 5, buffered to pH 7.4 with KOH. Where indicated, GIRK channel currents were assessed in a high K^+ recording solution comprising, in mM: KCl 96, NaCl 2, MgCl2 1 and HEPES 5, buffered to pH 7.4 with KOH. Currents were digitized using a USB interface (National Instruments) and recorded using WinWCP software (University of Strathclyde). To study GIRK channels, oocytes were held at 0 mV, and currents were assessed by 100 ms ramps from −80 to +80 mV that were repeated every second. The effect of the reagents was determined at −80 mV, then the channels were blocked by 5 mM BaCl2. Block was expressed as the percent-current block normalized to the maximum current. Between 8-12 oocytes from different Xenopus frogs were studied per experiment.

Chain of human ERG (hERG) channels (Q12809 whole entry): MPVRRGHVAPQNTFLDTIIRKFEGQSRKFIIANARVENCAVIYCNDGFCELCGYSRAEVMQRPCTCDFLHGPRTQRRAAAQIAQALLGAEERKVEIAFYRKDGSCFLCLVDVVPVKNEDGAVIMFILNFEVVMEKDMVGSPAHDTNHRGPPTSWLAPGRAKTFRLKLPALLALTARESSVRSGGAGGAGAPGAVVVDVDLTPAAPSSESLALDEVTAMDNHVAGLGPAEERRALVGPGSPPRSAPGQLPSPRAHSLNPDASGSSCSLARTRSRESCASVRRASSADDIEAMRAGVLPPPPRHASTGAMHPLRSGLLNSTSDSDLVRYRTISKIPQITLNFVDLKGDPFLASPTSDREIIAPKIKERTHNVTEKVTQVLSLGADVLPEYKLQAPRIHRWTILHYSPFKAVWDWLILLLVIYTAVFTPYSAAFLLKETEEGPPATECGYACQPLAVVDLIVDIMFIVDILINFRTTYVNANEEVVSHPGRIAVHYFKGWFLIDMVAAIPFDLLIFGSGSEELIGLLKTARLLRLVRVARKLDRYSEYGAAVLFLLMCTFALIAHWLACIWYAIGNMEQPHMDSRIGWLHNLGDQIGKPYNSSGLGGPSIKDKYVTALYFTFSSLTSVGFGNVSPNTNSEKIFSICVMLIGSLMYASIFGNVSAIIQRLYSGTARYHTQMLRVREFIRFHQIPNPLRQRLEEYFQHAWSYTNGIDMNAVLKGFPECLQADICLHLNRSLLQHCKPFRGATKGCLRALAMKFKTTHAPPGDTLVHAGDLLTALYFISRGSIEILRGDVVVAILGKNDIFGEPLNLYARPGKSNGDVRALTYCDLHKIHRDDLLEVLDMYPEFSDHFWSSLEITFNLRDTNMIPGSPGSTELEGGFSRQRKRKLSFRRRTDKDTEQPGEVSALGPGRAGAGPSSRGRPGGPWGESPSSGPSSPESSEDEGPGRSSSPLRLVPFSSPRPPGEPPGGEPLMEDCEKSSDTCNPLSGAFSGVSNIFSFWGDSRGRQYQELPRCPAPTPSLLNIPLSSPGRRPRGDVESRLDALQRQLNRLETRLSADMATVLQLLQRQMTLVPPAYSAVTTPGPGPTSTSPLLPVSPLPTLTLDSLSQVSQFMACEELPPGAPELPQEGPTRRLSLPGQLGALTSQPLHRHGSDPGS

## Cc1cc(NC(=O)Nc2ccc(Br)s2)n(-c2ccccc2)n1 [GAT1508, 1-(5-bromothiophen-2-yl)-3-(3-methyl-1-phenyl-1H-pyrazol-5-yl)urea]
GIRK1/2(IV-VT)
  EC50: 940 ± 150 nM
  EMAX: 1.68±0.04
GIRK1/2(IV-VT); read-out: EMAX, % of the control GIRK1/2
  Emax: 72%
light-dark box (LD) test
  time spent in the light compartment versus vehicle (in words): no difference

## Cc1cc(NC(=O)Nc2ccc(F)c(F)c2)n(-c2ccccc2)n1 [ML297, reference compound]
[1]
  inhibition of the hERG tail current: ~40%

— US12351574B2, “Selective ligands for modulation of GIRK channels” (Northeastern University, priority 2018, dated 2025)
